Laboratory results as given in patent EP4603105A1, “PHARMACEUTICAL COMPOSITION CONTAINING CYCLIC COMPOUND HAVING SELECTIVE KRAS INHIBITORY EFFECT AGAINST HRAS AND NRAS” (CHUGAI SEIYAKU KABUSHIKI KAISHA, priority 2022, dated 2024).
Where two headings read alike, the source gives them in different places. *1 amine or outer side, *2 acyl side, *3 side chain or, on linkers, in order; H or OH if unused. Where a SMILES comes first, the peptide text is derived from it. Bridges are numbered along the chain shown (N, C = ends). [ ]: non-standard residue; d: D form. The star is where a group is joined. hPhe(3-Cl-4-CF3) = N[C@@H](CCc1ccc(C(F)(F)F)c(Cl)c1)C(=O)O; NPrPhe(4-CF3) = CCCN[C@@H](Cc1ccc(C(F)(F)F)cc1)C(=O)O; NMeGly(cPent) = CN[C@H](C(=O)O)C1CCCC1; X9 = CC1(C)CN([*:1])[C@@H]1C(=O)[*:2]; NMeD = CN[C@@H](CC(=O)O)C(=O)O; NMeL = CN[C@@H](CC(C)C)C(=O)O; Morpholide = C1CN(*)CCO1; Ac5c = NC1(C(=O)O)CCCC1; Aze = O=C(O)[C@@H]1CCN1; Sar = CNCC(=O)O

Assays:
[1] = tested on: human lung cancer strain NCI-H441; type: cell-based
In short: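 Readout: […] after the ATP-based reagent. Compound: serial dilutions in dimethyl sulfoxide.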

[2] = biological target: GDP-bound KRAS wild-type protein (Homo sapiens, UniProt P01116); experiment: Binding to KRAS by surface plasmon resonance (SPR), dissociation constant KD
Sequence of GDP-bound KRAS wild-type protein (P01116 1-188 isoform P01116-2): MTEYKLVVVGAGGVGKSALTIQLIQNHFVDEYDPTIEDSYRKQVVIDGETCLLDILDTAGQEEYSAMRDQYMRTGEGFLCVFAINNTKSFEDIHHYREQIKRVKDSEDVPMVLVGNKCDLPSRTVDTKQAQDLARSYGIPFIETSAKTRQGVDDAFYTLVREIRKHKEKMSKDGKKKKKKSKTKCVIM
In short: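 Captured GDP-RAS (~100–300 RU) was exposed to increasing compound concentrations, 75 s per step, in running buffer with 10 µM GDP, 10 mM MgCl2 and 4% DMSO at pH 7.4.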

[3] = biological target: GDP-bound NRAS wild-type protein (Homo sapiens, UniProt P01111); experiment: Binding to NRAS by surface plasmon resonance (SPR), KD and KD ratio to KRAS
Sequence of GDP-bound NRAS wild-type protein (P01111 whole entry): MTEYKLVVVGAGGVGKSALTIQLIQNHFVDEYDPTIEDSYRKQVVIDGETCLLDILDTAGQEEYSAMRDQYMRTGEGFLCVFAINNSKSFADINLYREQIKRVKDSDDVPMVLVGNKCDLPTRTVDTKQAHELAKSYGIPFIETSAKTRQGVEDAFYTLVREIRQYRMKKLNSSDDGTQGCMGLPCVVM
In short: (§1)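 GDP-loaded biotinylated Avi-tag RAS proteins (E. coli-expressed) captured on a Biotin CAPture chip at ~100–300 RU; single-cycle kinetics at 30°C, 100 µL/min, 75 s injections of rising compound concentrations. HBS pH 7.4 running buffer with 1 mM DTT, 10 mM MgCl2, 10 µM GDP, 4% DMSO. KD from 1:1 binding fit.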

[4] = biological target: HRAS wild-type protein (Homo sapiens, UniProt P01112); experiment: Binding to HRAS by surface plasmon resonance (SPR), KD and KD ratio to KRAS
Sequence of HRAS wild-type protein (P01112 whole entry): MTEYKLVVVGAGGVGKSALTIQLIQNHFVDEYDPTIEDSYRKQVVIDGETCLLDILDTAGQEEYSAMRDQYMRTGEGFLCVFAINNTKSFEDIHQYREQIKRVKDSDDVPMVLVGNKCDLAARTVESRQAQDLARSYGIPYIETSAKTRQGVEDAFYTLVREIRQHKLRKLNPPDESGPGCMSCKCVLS
In short: as §1

[5] = ratio of KD for GDP-bound NRAS wild-type protein to KD for KRAS
[6] = ratio of KD for HRAS wild-type protein to KD for KRAS
[7] = Single Cycle Kinetics, 1:1 binding model
[8] = ratio of KD value for GDP-bound NRAS wild-type protein to KD value for KRAS (SPR)
[9] = ratio of KD value for HRAS wild-type protein to KD value for KRAS (SPR)
[10] = ratio of the KD value with respect to GDP-bound NRAS wild-type protein to the KD value with respect to KRAS
[11] = ratio of the KD value with respect to HRAS wild-type protein to the KD value with respect to KRAS

IC50 [1] | Kd ([2]; 1:1 binding model) | Kd ([2]; Single Cycle Kinetics) | Kd [2, 7] | SMILES | NRAS /KRAS [3, 5] | HRAS /KRAS [4, 6] | NRAS /KRAS [3, 8] | HRAS /KRAS [4, 9] | IC50 ([1]; NCI-H441 cells, 4 days, CellTiter-Glo, read-out: NCl-H441 IC50) | NRAS /KRAS [3, 10] | HRAS /KRAS [4, 11]
54.6 nM | 0.41 nM | – | – | CCO[C@@H]1C[C@H]2C(=O)NC3(CC(C)(C)C3)C(=O)N(C)[C@@H](C3CCCC3)C(=O)N(C)[C@H](C(=O)N(C)CC)CC(=O)N(C)[C@@H](CC(C)C)C(=O)N[C@@H]([C@@H](C)CC)C(=O)N(C)CC(=O)N(C)[C@H]3C/C=C\CCN(C3=O)[C@@H](Cc3ccc(C(F)F)cc3)C(=O)N(C)CC(=O)N[C@@H](CCc3cc(F)c(C(F)F)c(OC)c3)C(=O)N2C1 [PP3147] | A (a compound having 10 or more and less than 20 is denoted as A) | A (a compound having 10 or more and less than 20 is denoted as A) | – | – | – | – | –
46.5 nM | 1.4 nM | – | – | CCC[C@H]1C(=O)N[C@@H]([C@@H](C)CC)C(=O)N(C)CC(=O)N(C)[C@H]2C/C=C\CCN(C2=O)[C@@H](Cc2ccc(C(F)(F)F)cc2)C(=O)N(C)CC(=O)N[C@@H](CCc2ccc(C(F)(F)F)c(Cl)c2)C(=O)N2CC3(CC3)C[C@H]2C(=O)NC2(CC(C)(C)C2)C(=O)N(C)[C@@H](CC(F)(F)F)C(=O)N(C)[C@H](C(=O)N(C)C)CC(=O)N1C [PP2985] | AA (a compound having 20 or more is denoted as AA) | A (a compound having 10 or more and less than 20 is denoted as A) | – | – | – | – | –
9 nM | – | – | 0.071 nM | CC[C@H](C)[C@@H]1NC(=O)[C@H](CC)N(C)C(=O)C[C@@H](C(=O)N(C)C)N(C)C(=O)[C@H](C2CCCC2)N(C)C(=O)C2(CCC2)N(C)C(=O)[C@@H]2C[C@@H](C)CN2C(=O)[C@H](CCc2cc(F)c(C(F)(F)F)c(F)c2)NC(=O)CN(C)C(=O)[C@H](Cc2ccc(C)cc2)N2CC/C=C\C[C@@H](C2=O)N(C)C(=O)CN(C)C1=O [PP1787] | – | – | A (a compound having 10 or more and less than 20 is denoted as A) | B (a compound having 3 or more and less than 10 is denoted as B) | – | – | –
41 nM | 0.66 nM | – | – | CCO[C@@H]1C[C@H]2C(=O)NC3(CC(C)(C)C3)C(=O)N(C)[C@@H](C3CCCC3)C(=O)N(C)[C@H](C(=O)N(C)CC)CC(=O)N(C)[C@@H](CC(C)C)C(=O)N[C@@H]([C@@H](C)CC)C(=O)N(C)CC(=O)N(C)[C@H]3C/C=C\CCN(C3=O)[C@@H](Cc3ccc(C(F)F)cc3)C(=O)N(C)CC(=O)N[C@@H](CCc3cc(F)c(CC)c(OC)c3)C(=O)N2C1 [PP3143] | A (a compound having 10 or more and less than 20 is denoted as A) | A (a compound having 10 or more and less than 20 is denoted as A) | – | – | – | – | –
18.9 nM | – | – | 0.069 nM | CCCN(C)C(=O)[C@@H]1CC(=O)N(C)[C@@H](CCOC)C(=O)N[C@@H]([C@@H](C)CC)C(=O)N(C)CC(=O)N(C)[C@H]2C/C=C\CCN(C2=O)[C@@H](Cc2ccc(C(F)(F)F)cc2)C(=O)N(C)CC(=O)N[C@@H](CCc2ccc(C(F)(F)F)c(OC)c2)C(=O)N2C[C@@H](C)C[C@H]2C(=O)NC2(CCC2)C(=O)N(C)[C@@H](C2CCCC2)C(=O)N1C [PP2029] | – | – | – | – | – | A (a compound having 10 or more and less than 20 is denoted as A) | B (a compound having 3 or more and less than 10 is denoted as B)
64.7 nM | 0.99 nM | – | – | CCO[C@@H]1C[C@H]2C(=O)NC3(CC(C)(C)C3)C(=O)N(C)[C@@H](C3CCCC3)C(=O)N(C)[C@H](C(=O)N(C)CC)CC(=O)N(C)[C@@H]([C@@H](C)OC)C(=O)N[C@@H]([C@@H](C)CC)C(=O)N3CCC[C@H]3C(=O)N(C)[C@H]3C/C=C\CCN(C3=O)[C@@H](Cc3ccc(C)cc3)C(=O)N(C)CC(=O)N[C@@H](CCc3ccc(C(F)(F)F)c(OC)c3)C(=O)N2C1 [PP3188] | A (a compound having 10 or more and less than 20 is denoted as A) | A (a compound having 10 or more and less than 20 is denoted as A) | – | – | – | – | –

Second part, the compound before the results:

SMILES | IC50 [1] | Kd ([2]; 1:1 binding model) | Kd ([2]; Single Cycle Kinetics) | Kd [2, 7] | NRAS /KRAS [3, 5] | HRAS /KRAS [4, 6] | NRAS /KRAS [3, 8] | HRAS /KRAS [4, 9] | IC50 ([1]; NCI-H441 cells, 4 days, CellTiter-Glo, read-out: NCl-H441 IC50) | NRAS /KRAS [3, 10] | HRAS /KRAS [4, 11]
CCO[C@@H]1C[C@H]2C(=O)NC3(CCC3)C(=O)N(C)[C@@H](C3CCCC3)C(=O)N(C)[C@H](C)CC(=O)N(C)[C@@H](CC(C)C)C(=O)N[C@@H]([C@@H](C)CC)C(=O)N(C)CC(=O)N(C)[C@H]3C/C=C\CCN(C3=O)[C@@H](Cc3ccc(C(F)(F)F)cc3)C(=O)N(C)CC(=O)N[C@@H](CCc3cc(F)c(C(F)(F)F)c(F)c3)C(=O)N2C1 [PP1100] | 17.6 nM | – | 0.19 nM | – | B (a compound having 3 or more and less than 10 is denoted as B) | B (a compound having 3 or more and less than 10 is denoted as B) | – | – | – | – | –
CCCN1C(=O)[C@@H]2CCN2C(=O)[C@H]2N(CC2(C)C)C(=O)[C@H]([C@@H](C)CC)NC(=O)[C@H](CC(C)C)N(C)C(=O)C[C@@H](C(=O)N2CCOCC2)N(C)C(=O)[C@H](C2CCCC2)N(C)C(=O)C2(CCCC2)NC(=O)[C@@H]2CCCN2C(=O)[C@H](CCc2ccc(C(F)(F)F)c(Cl)c2)NC(=O)CN(C)C(=O)[C@@H]1Cc1ccc(C(F)(F)F)cc1 [PP0277] ([NMeL]I[X9][Aze][NPrPhe(4-CF3)][Sar][hPhe(3-Cl-4-CF3)]P[Ac5c][NMeGly(cPent)][NMeD]-Morpholide; lactam N-11) | 6.7 nM | 0.53 nM | – | – | C (A compound having a KD ratio of 0.1 or more and less than 3 is denoted as C) | C (A compound having a KD ratio of 0.1 or more and less than 3 is denoted as C) | – | – | – | – | –
CCC[C@H]1C(=O)N[C@@H](C2CCCCC2)C(=O)N(C)CC(=O)N(C)[C@H]2C/C=C\CCN(C2=O)[C@@H](Cc2ccc(C)cc2)C(=O)N(C)CC(=O)N[C@@H](CCc2ccc(C(F)(F)F)c(Cl)c2)C(=O)N2C[C@H](OCC)C[C@H]2C(=O)NC2(CC(C)(C)C2)C(=O)N(C)[C@@H](C2CCCC2)C(=O)N(C)[C@H](C(=O)N(C)C)CC(=O)N1C [PP2998] | 8.3 nM | 0.43 nM | – | – | A (a compound having 10 or more and less than 20 is denoted as A) | AA (a compound having 20 or more is denoted as AA) | – | – | – | – | –
CC[C@H](C)[C@@H]1NC(=O)[C@H](CC(C)C)N(C)C(=O)C[C@@H](C(=O)N2CCOCC2)N(C)C(=O)[C@H](C2CCCC2)N(C)C(=O)C2(CCC2)NC(=O)[C@@H]2C[C@@H](OCC3CC3)CN2C(=O)[C@H](CCc2cc(F)c(C(F)(F)F)c(F)c2)NC(=O)CN(C)C(=O)[C@H](Cc2ccc(C(F)(F)F)cc2)N2CCCC[C@@H](C2=O)N(C)C(=O)CN(C)C1=O [PP1014] | 114 nM | – | 1.1 nM | – | C (A compound having a KD ratio of 0.1 or more and less than 3 is denoted as C) | C (A compound having a KD ratio of 0.1 or more and less than 3 is denoted as C) | – | – | – | – | –
CCC(CC)[C@H]1C(=O)N(C)[C@H](C(=O)N2CCCCC2)CC(=O)N(C)[C@H]2CCC/C=C/c3ccc(cc3)C[C@@H](C(=O)N(C)CC(=O)N[C@@H](CCc3ccc(Cl)c(Cl)c3)C(=O)N3CCC[C@H]3C(=O)NC3(CC(C)(C)C3)C(=O)N1C)N1CC/C=C\C[C@@H](C1=O)N(C)C(=O)CN(C)C(=O)[C@H]([C@@H](C)CC)NC2=O [PP3055] | – | 1 nM | – | – | AA (a compound having 20 or more is denoted as AA) | A (a compound having 10 or more and less than 20 is denoted as A) | – | – | 69.2 nM | – | –
CCCN(C)C(=O)[C@@H]1CC(=O)N(C)[C@@H](CC)C(=O)N[C@@H]([C@@H](C)CC)C(=O)N(C)CC(=O)N(C)[C@H]2C/C=C\CCN(C2=O)[C@@H](Cc2ccc(C(F)(F)F)cc2)C(=O)N(C)CC(=O)N[C@@H](CCc2ccc(C(F)(F)F)c(OC)c2)C(=O)N2C[C@H](OCC)C[C@H]2C(=O)NC2(CC(C)(C)C2)C(=O)N(C)[C@@H](C2CCCC2)C(=O)N1C [PP1654] | 2.5 nM | – | – | 0.097 nM | – | – | A (a compound having 10 or more and less than 20 is denoted as A) | A (a compound having 10 or more and less than 20 is denoted as A) | – | – | –
CCC[C@H]1C(=O)N[C@@H](C2CCC2)C(=O)N(C)CC(=O)N(C)[C@H]2C/C=C\CCN(C2=O)[C@@H](Cc2ccc(C)cc2)C(=O)N(C)CC(=O)N[C@@H](CCc2ccc(C(F)(F)F)c(F)c2)C(=O)N2C[C@H](OCC)C[C@H]2C(=O)NC2(CC(C)(C)C2)C(=O)N(C)[C@@H](C2CCC2)C(=O)N(C)[C@H](C(=O)N(C)C)CC(=O)N1C [PP2242] | 178 nM | – | – | 1.8 nM | – | – | – | – | – | A (a compound having 10 or more and less than 20 is denoted as A) | A (a compound having 10 or more and less than 20 is denoted as A)
C#CC[C@H]1C(=O)N[C@@H]([C@@H](C)CC)C(=O)N(C)CC(=O)N(C)[C@H]2C/C=C\CCN(C2=O)[C@@H](Cc2ccc(C(F)(F)F)cc2)C(=O)N(C)CC(=O)N[C@@H](CCc2ccc(C(F)(F)F)c(OC)c2)C(=O)N2C[C@H](OCC)C[C@H]2C(=O)NC2(CCCC2)C(=O)N(C)[C@@H](C2CCC2)C(=O)N(C)[C@H](C(=O)N2CCCCC2)CC(=O)N1C [PP3131] | 157 nM | 2.8 nM | – | – | A (a compound having 10 or more and less than 20 is denoted as A) | A (a compound having 10 or more and less than 20 is denoted as A) | – | – | – | – | –
